From ChEMBL document CHEMBL3885861, “Open TG-GATES”

Organism: Rattus norvegicus
Experiment: Open TG-GATES - Regimen: Single
Format: toxicity, organism-based, Sprague-Dawley
Set-up: regimen Single, gender Male, age 6 weeks
Settings: in vivo, po, 80 mg/kg, route gavage, dose level Middle; for APTT / Bas / Eos / Fbg / Hb / Ht / Lym / MCH / MCHC / MCV / Mono / Neu / PT / Plat / RBC / Ret / WBC: tissue Blood; for KIDNEY_L / KIDNEY_R / KIDNEY_TOTAL: tissue Kidney; for LIVER: tissue Liver; for A/G / ALP / ALT / AST / BUN / CRE / Ca / Cl / DBIL / GLC / IP / K / LDH / Na / PL / RALB / TBIL / TC / TG / TP / gamma-GTP: tissue Plasma

CCSCC[C@H](N)C(=O)O [ETHIONINE]
TERMINAL_BW (3 h): 217.5 g | APTT (3 h): 18.6 s | Bas (3 h): 0% | Eos (3 h): 1% | Fbg (3 h): 209 mg/dL | Hb (3 h): 13.4 g/dL | Ht (3 h): 39.6% | Lym (3 h): 77.8% | MCH (3 h): 21.3 pg | MCHC (3 h): 33.9% | MCV (3 h): 62.7 fL | Mono (3 h): 2.8% | Neu (3 h): 17.6% | PT (3 h): 12.4 s | Plat (3 h): 119.9 x10_4/uL | RBC (3 h): 631.4 x10_4/ul | Ret (3 h): 6.8% | WBC (3 h): 71.3 x10_2/uL | KIDNEY_L (3 h): 1 g | KIDNEY_R (3 h): 1 g | KIDNEY_TOTAL (3 h): 1.9 g | LIVER (3 h): 9.9 g | A/G (3 h): 1.6 | ALP (3 h): 765.4 IU/L | ALT (3 h): 33 IU/L | AST (3 h): 62.8 IU/L | BUN (3 h): 10.4 mg/dL | CRE (3 h): 0.4 mg/dL | Ca (3 h): 10.3 mg/dL | Cl (3 h): 101.4 meq/L | DBIL (3 h): 0.052 mg/dL | GLC (3 h): 207.4 mg/dL | IP (3 h): 10 mg/dL | K (3 h): 3.8 meq/L | LDH (3 h): 171.6 IU/L | Na (3 h): 140.4 meq/L | PL (3 h): 120.8 mg/dL | RALB (3 h): 3.3 g/dL | TBIL (3 h): 0.1 mg/dL | TC (3 h): 68.2 mg/dL | TG (3 h): 43.8 mg/dL | TP (3 h): 5.4 g/dL | gamma-GTP (3 h): 1.4 IU/L | TERMINAL_BW (6 h): 212.9 g | APTT (6 h): 18.2 s | Bas (6 h): 0% | Eos (6 h): 1% | Fbg (6 h): 215 mg/dL | Hb (6 h): 13.5 g/dL | Ht (6 h): 39.6% | Lym (6 h): 79.4% | MCH (6 h): 21.4 pg | MCHC (6 h): 34.1% | MCV (6 h): 62.7 fL | Mono (6 h): 2.2% | Neu (6 h): 16.6% | PT (6 h): 12.9 s | Plat (6 h): 116.1 x10_4/uL | RBC (6 h): 632 x10_4/ul | Ret (6 h): 6.3% | WBC (6 h): 88 x10_2/uL | KIDNEY_L (6 h): 1 g | KIDNEY_R (6 h): 1 g | KIDNEY_TOTAL (6 h): 1.9 g | LIVER (6 h): 9.2 g | A/G (6 h): 1.7 | ALP (6 h): 877.2 IU/L | ALT (6 h): 35.6 IU/L | AST (6 h): 65.2 IU/L | BUN (6 h): 10.6 mg/dL | CRE (6 h): 0.3 mg/dL | Ca (6 h): 10.3 mg/dL | Cl (6 h): 102.6 meq/L | DBIL (6 h): 0.058 mg/dL | GLC (6 h): 207.4 mg/dL | IP (6 h): 9.4 mg/dL | K (6 h): 3.7 meq/L | LDH (6 h): 191.2 IU/L | Na (6 h): 140.4 meq/L | PL (6 h): 116.6 mg/dL | RALB (6 h): 3.3 g/dL | TBIL (6 h): 0.1 mg/dL | TC (6 h): 58.8 mg/dL | TG (6 h): 54.2 mg/dL | TP (6 h): 5.4 g/dL | gamma-GTP (6 h): 1 IU/L | TERMINAL_BW (9 h): 215.1 g | APTT (9 h): 19.5 s | Bas (9 h): 0% | Eos (9 h): 1% | Fbg (9 h): 205.4 mg/dL | Hb (9 h): 13.3 g/dL | Ht (9 h): 39% | Lym (9 h): 76% | MCH (9 h): 21 pg | MCHC (9 h): 34.1% | MCV (9 h): 61.4 fL | Mono (9 h): 2.4% | Neu (9 h): 19.4% | PT (9 h): 13.1 s | Plat (9 h): 117 x10_4/uL | RBC (9 h): 634.6 x10_4/ul | Ret (9 h): 6.7% | WBC (9 h): 77.6 x10_2/uL | KIDNEY_L (9 h): 1 g | KIDNEY_R (9 h): 1 g | KIDNEY_TOTAL (9 h): 1.9 g | LIVER (9 h): 9.1 g | A/G (9 h): 1.5 | ALP (9 h): 727 IU/L | ALT (9 h): 28.8 IU/L | AST (9 h): 54.8 IU/L | BUN (9 h): 10.6 mg/dL | CRE (9 h): 0.3 mg/dL | Ca (9 h): 10.4 mg/dL | Cl (9 h): 101.4 meq/L | DBIL (9 h): 0.086 mg/dL | GLC (9 h): 197.6 mg/dL | IP (9 h): 9.7 mg/dL | K (9 h): 3.6 meq/L | LDH (9 h): 174.2 IU/L | Na (9 h): 140.6 meq/L | PL (9 h): 133 mg/dL | RALB (9 h): 3.4 g/dL | TBIL (9 h): 0.1 mg/dL | TC (9 h): 70.4 mg/dL | TG (9 h): 95.6 mg/dL | TP (9 h): 5.6 g/dL | gamma-GTP (9 h): 1.4 IU/L | TERMINAL_BW (24 h): 227.7 g | APTT (24 h): 20.7 s | Bas (24 h): 0% | Eos (24 h): 1% | Fbg (24 h): 224 mg/dL | Hb (24 h): 13.7 g/dL | Ht (24 h): 40.7% | Lym (24 h): 79.8% | MCH (24 h): 21.1 pg | MCHC (24 h): 33.7% | MCV (24 h): 62.7 fL | Mono (24 h): 3.6% | Neu (24 h): 14% | PT (24 h): 13.6 s | Plat (24 h): 122.5 x10_4/uL | RBC (24 h): 649.8 x10_4/ul | Ret (24 h): 6.5% | WBC (24 h): 97.9 x10_2/uL | KIDNEY_L (24 h): 1 g | KIDNEY_R (24 h): 1 g | KIDNEY_TOTAL (24 h): 2.1 g | LIVER (24 h): 11.3 g | A/G (24 h): 1.5 | ALP (24 h): 1010.2 IU/L | ALT (24 h): 37 IU/L | AST (24 h): 69 IU/L | BUN (24 h): 13.4 mg/dL | CRE (24 h): 0.4 mg/dL | Ca (24 h): 10.8 mg/dL | Cl (24 h): 101.2 meq/L | DBIL (24 h): 0.09 mg/dL | GLC (24 h): 215.8 mg/dL | IP (24 h): 8.8 mg/dL | K (24 h): 3.8 meq/L | LDH (24 h): 210.6 IU/L | Na (24 h): 139.4 meq/L | PL (24 h): 129.6 mg/dL | RALB (24 h): 3.5 g/dL | TBIL (24 h): 0.1 mg/dL | TC (24 h): 57.6 mg/dL | TG (24 h): 98.2 mg/dL | TP (24 h): 5.8 g/dL | gamma-GTP (24 h): 1 IU/L
